Columns and labels:
[1] = target: T1, Alpha-1A adrenergic receptor (Rattus norvegicus, UniProt P43140); assay: Binding affinity was tested on CEC-pretreated rat hippocampus Alpha-1A adrenergic receptor; type: tissue-based
T1 sequence (P43140 whole entry): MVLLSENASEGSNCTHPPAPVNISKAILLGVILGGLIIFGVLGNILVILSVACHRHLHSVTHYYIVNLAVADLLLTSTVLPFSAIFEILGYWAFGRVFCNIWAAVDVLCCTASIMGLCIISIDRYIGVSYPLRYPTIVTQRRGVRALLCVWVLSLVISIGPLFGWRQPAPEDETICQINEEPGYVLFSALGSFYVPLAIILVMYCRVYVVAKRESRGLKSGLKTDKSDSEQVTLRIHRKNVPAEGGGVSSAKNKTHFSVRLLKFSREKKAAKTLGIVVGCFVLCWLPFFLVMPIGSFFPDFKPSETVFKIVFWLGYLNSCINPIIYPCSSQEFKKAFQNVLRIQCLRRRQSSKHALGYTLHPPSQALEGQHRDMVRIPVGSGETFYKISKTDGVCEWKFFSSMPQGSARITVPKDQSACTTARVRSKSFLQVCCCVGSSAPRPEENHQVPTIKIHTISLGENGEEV

[2] = target: T2, Alpha-1B adrenergic receptor (Rattus norvegicus, UniProt P15823); assay: Binding affinity was tested on CEC-pretreated rat liver Alpha-1B adrenergic receptor
T2 sequence (P15823 whole entry): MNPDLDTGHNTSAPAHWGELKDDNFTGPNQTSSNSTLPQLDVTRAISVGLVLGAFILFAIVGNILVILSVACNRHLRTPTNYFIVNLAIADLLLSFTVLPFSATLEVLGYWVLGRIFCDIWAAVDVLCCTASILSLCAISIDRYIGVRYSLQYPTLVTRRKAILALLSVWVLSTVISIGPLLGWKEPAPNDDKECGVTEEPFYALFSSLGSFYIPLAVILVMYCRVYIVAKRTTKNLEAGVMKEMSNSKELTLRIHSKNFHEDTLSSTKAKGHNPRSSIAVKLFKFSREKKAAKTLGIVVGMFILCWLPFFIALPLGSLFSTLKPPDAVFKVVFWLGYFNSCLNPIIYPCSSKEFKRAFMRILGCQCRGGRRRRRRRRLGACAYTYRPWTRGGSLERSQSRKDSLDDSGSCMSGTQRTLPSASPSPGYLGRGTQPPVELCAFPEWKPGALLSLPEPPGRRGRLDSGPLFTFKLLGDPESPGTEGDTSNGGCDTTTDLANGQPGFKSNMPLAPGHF

[3] = (§1) In vivo dose (iv) for 50% inhibition of norepinephrine-mediated contraction of proximal urethra (ID50) with the dose (iv) for 25% reduction in systolic blood pressure (ED25) in anesthetized dogs; type: functional
[4] = target: T3, Steroid 5-alpha-reductase (Rattus norvegicus, UniProt P24008+P31214); assay: (§2) Binding affinity on rat 5-alpha reductase-1 isozyme; type: protein assay
T3 sequence (P24008 whole entry): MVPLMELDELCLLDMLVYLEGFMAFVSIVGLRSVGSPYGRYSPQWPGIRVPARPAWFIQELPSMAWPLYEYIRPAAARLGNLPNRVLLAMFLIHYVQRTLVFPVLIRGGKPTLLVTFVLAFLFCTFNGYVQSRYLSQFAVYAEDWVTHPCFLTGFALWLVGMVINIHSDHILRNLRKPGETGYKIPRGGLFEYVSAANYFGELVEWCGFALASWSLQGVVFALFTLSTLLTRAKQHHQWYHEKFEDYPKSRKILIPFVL
T3 sequence (P31214 whole entry): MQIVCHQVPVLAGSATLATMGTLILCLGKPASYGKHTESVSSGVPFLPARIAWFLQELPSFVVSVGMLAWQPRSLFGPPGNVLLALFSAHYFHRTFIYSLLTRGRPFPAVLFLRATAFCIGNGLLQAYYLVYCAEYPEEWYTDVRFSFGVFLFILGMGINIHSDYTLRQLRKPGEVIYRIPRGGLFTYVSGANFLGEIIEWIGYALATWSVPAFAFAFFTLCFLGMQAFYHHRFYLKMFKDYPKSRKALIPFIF

[5] = target: T4, Alpha-1D adrenergic receptor (Homo sapiens, UniProt P25100); assay: Binding affinity was tested on human Alpha-1D adrenergic receptor
T4 sequence (P25100 whole entry): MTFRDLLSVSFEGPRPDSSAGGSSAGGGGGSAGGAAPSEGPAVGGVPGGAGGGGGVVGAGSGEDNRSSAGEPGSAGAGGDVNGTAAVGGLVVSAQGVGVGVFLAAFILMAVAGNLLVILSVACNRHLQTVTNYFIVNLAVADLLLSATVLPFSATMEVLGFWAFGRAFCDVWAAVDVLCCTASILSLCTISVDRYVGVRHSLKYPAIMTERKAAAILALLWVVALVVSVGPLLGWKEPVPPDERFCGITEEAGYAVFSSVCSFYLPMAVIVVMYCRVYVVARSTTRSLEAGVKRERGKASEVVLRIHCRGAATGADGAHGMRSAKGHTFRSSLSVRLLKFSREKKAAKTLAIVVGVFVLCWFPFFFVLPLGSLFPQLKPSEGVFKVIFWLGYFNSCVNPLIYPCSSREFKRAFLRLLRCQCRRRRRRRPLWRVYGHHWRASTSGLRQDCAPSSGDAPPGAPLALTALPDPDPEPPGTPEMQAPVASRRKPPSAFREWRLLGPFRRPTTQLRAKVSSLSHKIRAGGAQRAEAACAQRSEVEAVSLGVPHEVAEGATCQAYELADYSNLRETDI

[6] = target: T5, Adrenergic receptor alpha-1 (Homo sapiens, UniProt P35348+P25100+P35368); assay: pA2 for Alpha-1 adrenergic receptor from human prostate.; type: tissue-based, Prostate gland
T5 sequence (P35348 whole entry): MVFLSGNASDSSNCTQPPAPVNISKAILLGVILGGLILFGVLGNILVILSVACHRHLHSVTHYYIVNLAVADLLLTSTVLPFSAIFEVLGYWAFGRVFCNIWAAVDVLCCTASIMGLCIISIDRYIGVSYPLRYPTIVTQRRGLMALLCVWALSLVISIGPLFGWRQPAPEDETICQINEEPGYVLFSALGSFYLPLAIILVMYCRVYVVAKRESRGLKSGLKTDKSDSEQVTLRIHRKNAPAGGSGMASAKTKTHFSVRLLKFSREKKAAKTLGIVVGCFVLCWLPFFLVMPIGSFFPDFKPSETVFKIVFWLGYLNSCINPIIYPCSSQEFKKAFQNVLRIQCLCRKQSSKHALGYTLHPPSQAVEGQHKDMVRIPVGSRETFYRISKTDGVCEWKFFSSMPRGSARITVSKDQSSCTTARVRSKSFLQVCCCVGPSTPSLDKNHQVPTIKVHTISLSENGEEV
T5 sequence (P25100 whole entry): T4 sequence (P25100 whole entry)
T5 sequence (P35368 whole entry): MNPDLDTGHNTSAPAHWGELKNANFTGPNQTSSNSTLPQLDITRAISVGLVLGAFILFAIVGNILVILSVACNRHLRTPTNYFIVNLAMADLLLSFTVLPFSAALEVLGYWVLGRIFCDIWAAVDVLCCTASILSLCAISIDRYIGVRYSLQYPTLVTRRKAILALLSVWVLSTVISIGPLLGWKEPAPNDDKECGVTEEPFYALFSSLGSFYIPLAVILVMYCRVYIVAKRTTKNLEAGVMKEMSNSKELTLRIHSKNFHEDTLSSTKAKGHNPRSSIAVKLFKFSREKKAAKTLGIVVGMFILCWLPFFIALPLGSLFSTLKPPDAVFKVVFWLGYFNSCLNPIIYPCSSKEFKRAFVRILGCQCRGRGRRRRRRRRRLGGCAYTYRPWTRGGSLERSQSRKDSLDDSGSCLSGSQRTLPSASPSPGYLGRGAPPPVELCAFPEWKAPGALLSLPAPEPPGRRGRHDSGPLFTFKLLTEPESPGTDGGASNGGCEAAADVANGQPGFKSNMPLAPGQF

[7] = target: T6, Alpha-1A adrenergic receptor (Homo sapiens, UniProt P35348); assay: Binding affinity was tested on human Alpha-1A adrenergic receptor
T6 sequence (P35348 whole entry): T5 sequence (P35348 whole entry)

[8] = target: T7, Alpha-1B adrenergic receptor (Homo sapiens, UniProt P35368); assay: Binding affinity was tested on human Alpha-1B adrenergic receptor
T7 sequence (P35368 whole entry): T5 sequence (P35368 whole entry)

Canis familiaris [9] = assay: 50% reduction in agonist induced pressor response in anesthetized dog; type: functional; conditions: Canis lupus familiaris; read-out: ID50 (the source's name)
Canis familiaris [10] = assay: 50% reduction in intraurethral pressure (IUP) in response to hypogastric nerve stimulation or agonist (phenylephrine or norepinephrine) administration in anesthetized dog; type: functional; conditions: Canis lupus familiaris; read-out: ID50 (the source's name)
[11] = Ratio of intraurethral pressure to that of pressor response in dog.; type: functional
[12] = target: T8, 3-oxo-5-alpha-steroid 4-dehydrogenase 2 (Homo sapiens, UniProt P31213); assay: Binding affinity for human 5-alpha reductase 2 isozyme
T8 sequence (P31213 whole entry): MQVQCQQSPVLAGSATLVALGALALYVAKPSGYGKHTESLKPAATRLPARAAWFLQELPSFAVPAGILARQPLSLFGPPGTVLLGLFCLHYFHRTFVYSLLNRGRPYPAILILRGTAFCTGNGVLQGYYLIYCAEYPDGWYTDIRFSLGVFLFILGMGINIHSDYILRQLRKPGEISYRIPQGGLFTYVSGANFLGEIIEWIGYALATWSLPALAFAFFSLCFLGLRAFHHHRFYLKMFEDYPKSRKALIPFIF

[13] = target: T9, 3-oxo-5-alpha-steroid 4-dehydrogenase 1 (Homo sapiens, UniProt P18405); assay: Binding affinity for human 5 alpha reductase 1 isozyme
T9 sequence (P18405 whole entry): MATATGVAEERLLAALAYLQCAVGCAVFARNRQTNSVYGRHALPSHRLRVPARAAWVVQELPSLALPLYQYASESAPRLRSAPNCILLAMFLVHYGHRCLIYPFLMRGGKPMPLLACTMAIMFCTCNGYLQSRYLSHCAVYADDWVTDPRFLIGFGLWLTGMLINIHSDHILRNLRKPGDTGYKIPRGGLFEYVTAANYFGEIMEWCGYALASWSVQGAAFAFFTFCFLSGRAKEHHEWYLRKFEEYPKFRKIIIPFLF

[14] = Binding affinity on human prostatic 5-alpha reductase isozyme
[15] = target: T3, Steroid 5-alpha-reductase; assay: Binding affinity on rat 5-alpha reductase isozyme; type: protein assay
[16] = target: T10, 3-oxo-5-alpha-steroid 4-dehydrogenase 2 (Rattus norvegicus, UniProt P31214); assay: Binding affinity on rat 5-alpha reductase-2 isozyme
T10 sequence (P31214 whole entry): T3 sequence (P31214 whole entry)

[17] = target: T11, 3-oxo-5-alpha-steroid 4-dehydrogenase 1 (Rattus norvegicus, UniProt P24008); assay: as §2
T11 sequence (P24008 whole entry): T3 sequence (P24008 whole entry)

Canis familiaris [18] = assay: as §1; type: functional, Canis lupus familiaris, Artery
[19] = Dose (iv) for 20% reduction of mean blood pressure in rat (ID20) with the dose for 50% inhibition of norepinephrine-mediated contraction of proximal urethra (ID50) in cat; type: functional

COc1ccccc1N1CCN(CCNC(=O)c2cccc3c(=O)c(C)c(-c4ccccc4)oc23)CC1
IC50 [1]: 14 nM
IC50 [2]: 79 nM
Ratio [3]: 14

C[C@]12CCC(C(=O)O)=CC1=CCc1cc(Cl)ccc12
Ki [4]: 1200 nM

Cc1c[nH]c(=O)n(CCCN2CCN(c3ccc(F)cc3OCC(F)(F)F)CC2)c1=O
Ki [5]: 100 nM
pA2 [6]: 8.8
Ki [7]: 1 nM
Ki [8]: 79.4 nM
ED50 (Canis familiaris [9]): 0.38 mg/kg
ED50 (Canis familiaris [10]): 5 µg/kg
Ratio [11]: 76

C[C@]12CCC(=O)C(Cl)=C1NCC1C2CC[C@@]2(C)C1CC[C@@H]2C(=O)Nc1cc(C(F)(F)F)ccc1C(F)(F)F (stereo partly drawn)
IC50 [12]: < 0.1 nM
Ki [13]: 0.2 nM

COc1ccc(CCN2CCC(c3nc(COCC(F)(F)F)c(-c4ccc(F)cc4)o3)CC2)cc1S(N)(=O)=O
Ki [5]: 25.1 nM
Ki [7]: 0.2 nM
Ki [8]: 15.8 nM
ED50 (Canis familiaris [9]): 7.25 mg/kg
ED50 (Canis familiaris [10]): 13 µg/kg
Ratio [11]: 550

CC(C)N(C(=O)c1ccc(CCC2CCC(=O)N(C)C2)cc1)C(C)C (stereo not drawn)
Ki [14]: > 20 µM
Ki [15]: > 20 µM

CN1C(=O)CC[C@@H]2c3ccc(Cl)cc3CC[C@H]21 [BEXLOSTERIDE]
Ki [16]: 10 µM
Ki [17]: 8 nM

CC(C)(C)NC(=O)[C@H]1CC[C@H]2[C@@H]3CC[C@H]4NC(=O)C=C[C@]4(C)[C@H]3CC[C@]12C [FINASTERIDE]
Ki [13]: 150 nM

COc1ccccc1N1CCN(CCCC(=O)c2cccc3c(=O)c(C)c(-c4ccccc4)oc23)CC1
IC50 [1]: 1.5 nM
IC50 [2]: 24 nM
Ratio (Canis familiaris [18]): 39

NC(=O)c1ccnc(NCCCN2CCN(c3cccc(Cl)c3)CC2)n1
Ratio [19]: 18
